# Source: ChEMBL document CHEMBL4814005, “Pragmatic recruitment of memantine as the capping group for the design of HDAC inhibitors: A preliminary attempt to unravel the enigma of glioblastoma” (Eur J Med Chem, 2021)
# pIC50: −log10 of the molar value. Active and inactive are the calls of the source. No cut-off for these calls is given here.
# Tests used:
# [1] = tested on: U-87 MG; experiment: Antiproliferation activity against human U-87 MG cells assessed as growth inhibition measured after 1 hr by MTT assay; type: functional, cell-based, U-87MG ATCC
# [2] = molecular target: T1, Histone deacetylase 8 (Homo sapiens, UniProt Q9BY41); experiment: Inhibition of human recombinant HDAC8 using [RHKK(Ac)] fluorogenic substrate
# T1 sequence (Q9BY41 whole entry): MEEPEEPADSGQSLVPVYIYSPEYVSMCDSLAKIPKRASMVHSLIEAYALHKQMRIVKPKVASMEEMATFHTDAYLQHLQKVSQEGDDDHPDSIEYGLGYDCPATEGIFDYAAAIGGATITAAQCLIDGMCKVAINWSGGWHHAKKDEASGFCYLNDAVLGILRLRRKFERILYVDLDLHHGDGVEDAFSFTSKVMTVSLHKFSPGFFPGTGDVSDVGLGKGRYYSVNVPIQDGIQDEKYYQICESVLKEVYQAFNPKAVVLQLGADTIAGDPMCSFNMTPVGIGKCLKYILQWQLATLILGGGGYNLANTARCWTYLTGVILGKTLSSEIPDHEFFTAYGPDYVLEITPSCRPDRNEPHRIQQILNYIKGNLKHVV
# [3] = molecular target: Histone deacetylase 3 (Homo sapiens, UniProt O15379); experiment: Inhibition of human recombinant HDAC3 using [RHKK(Ac)] fluorogenic substrate
# [4] = molecular target: Histone deacetylase 1 (Homo sapiens, UniProt Q13547); experiment: Inhibition of human recombinant HDAC1 expressed in baculovirus infected insect cells using [RHKK(Ac)] fluorogenic substrate
# [5] = molecular target: T2, Protein deacetylase HDAC6 (Homo sapiens, UniProt Q9UBN7); experiment: Inhibition of human recombinant HDAC6 expressed in baculovirus infected insect cells using [RHKK(Ac)] fluorogenic substrate
# T2 sequence (Q9UBN7 whole entry): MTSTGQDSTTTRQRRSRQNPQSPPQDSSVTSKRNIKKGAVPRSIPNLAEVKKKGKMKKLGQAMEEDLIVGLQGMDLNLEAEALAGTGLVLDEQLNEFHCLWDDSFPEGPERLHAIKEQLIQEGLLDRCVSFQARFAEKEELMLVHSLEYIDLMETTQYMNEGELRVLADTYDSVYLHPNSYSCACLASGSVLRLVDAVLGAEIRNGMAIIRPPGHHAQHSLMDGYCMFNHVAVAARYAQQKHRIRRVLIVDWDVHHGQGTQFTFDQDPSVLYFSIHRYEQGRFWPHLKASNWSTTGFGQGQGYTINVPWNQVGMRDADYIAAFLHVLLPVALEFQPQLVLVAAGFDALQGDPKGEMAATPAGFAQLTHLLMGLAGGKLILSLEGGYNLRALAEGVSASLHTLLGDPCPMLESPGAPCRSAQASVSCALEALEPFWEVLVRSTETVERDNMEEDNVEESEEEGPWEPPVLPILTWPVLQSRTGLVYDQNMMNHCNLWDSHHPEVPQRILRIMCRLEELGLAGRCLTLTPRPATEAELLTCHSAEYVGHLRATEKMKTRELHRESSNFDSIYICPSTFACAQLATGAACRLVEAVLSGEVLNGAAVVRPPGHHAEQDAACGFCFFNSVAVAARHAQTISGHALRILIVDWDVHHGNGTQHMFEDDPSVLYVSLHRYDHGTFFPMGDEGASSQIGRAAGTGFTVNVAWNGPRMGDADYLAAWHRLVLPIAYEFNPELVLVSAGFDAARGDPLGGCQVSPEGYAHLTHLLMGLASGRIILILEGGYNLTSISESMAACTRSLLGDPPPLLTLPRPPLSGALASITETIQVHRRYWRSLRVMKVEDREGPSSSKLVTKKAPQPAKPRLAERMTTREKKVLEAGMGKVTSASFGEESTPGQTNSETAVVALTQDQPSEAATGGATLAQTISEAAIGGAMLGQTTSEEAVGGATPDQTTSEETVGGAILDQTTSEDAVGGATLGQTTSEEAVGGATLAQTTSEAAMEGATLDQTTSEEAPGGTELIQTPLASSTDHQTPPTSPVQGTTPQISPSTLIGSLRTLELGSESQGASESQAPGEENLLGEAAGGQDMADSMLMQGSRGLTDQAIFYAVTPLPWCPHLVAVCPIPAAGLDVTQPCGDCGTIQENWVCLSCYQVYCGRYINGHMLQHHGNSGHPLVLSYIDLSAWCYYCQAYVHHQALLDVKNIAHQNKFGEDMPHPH
# [6] = tested on: A 172; experiment: Induction of cell cycle arrest in human A 172 cells assessed as accumulation at S phase upto 10 uM by propidium iodide staining based flow cytometric analysis; type: functional; settings: dose microM <=10
# [7] = tested on: A 172; experiment: Induction of apoptosis in human A 172 cells assessed as upregulation of cleaved PARP at 3 uM after 24 hrs by western blot analysis; type: functional, cell-based
# [8] = tested on: A 172; experiment: Induction of apoptosis in human A 172 cells assessed as upregulation of activated caspase 3 protein at 3 uM after 24 hrs by western blot analysis; type: functional, cell-based
# [9] = tested on: U-87 MG; experiment: Antiproliferation activity against human U-87 MG cells assessed as decrease in cell growth at 30 uM after 3 days by MTT assay; type: functional, U-87MG ATCC; set-up: scale not given: the % may be the effect or the level left; settings: time 3 day
# [10] = tested on: A 172; experiment: Induction of cell cycle arrest in human A 172 cells assessed as accumulation at G2/M phase by propidium iodide staining based flow cytometric analysis; type: functional; settings: dose microM <=10
# [11] = tested on: A 172; experiment: Induction of cell cycle arrest in human A 172 cells assessed as accumulation at G0/G1 phase by propidium iodide staining based flow cytometric analysis; type: functional; settings: dose microM <=10
# [12] = tested on: U-87 MG; experiment: Antiproliferation activity against human U-87 MG cells assessed as decrease in cell growth at 30 uM incubated for 2 days by MTT assay; type: functional, cell-based; settings: U-87MG ATCC, time 2.0 day
# [13] = tested on: U-87 MG; experiment: Antiproliferation activity against human U-87 MG cells assessed as growth inhibition at 10 uM after 3 days by MTT assay; type: functional, U-87MG ATCC; settings: 72 h, time 3 day
# [14] = tested on: A 172; experiment: Induction of cell cycle arrest in human A 172 cells assessed as sub-G1 population upto 10 uM after 2 days by flow cytometry/PI staining assay; type: functional, cell-based; settings: dose microM <=10, time 2.0 day
# [15] = tested on: U-87 MG; experiment: Antiproliferation activity against TMZ resistant human U-87 MG R-50 cells assessed as growth inhibition at 3 uM by MTT assay; type: functional, cell-based; settings: U-87MG ATCC
# [16] = tested on: Glioblastoma cell line; experiment: Antiproliferation activity against TMZ resistant human glioblastoma cell P1S assessed as growth inhibition at 3 uM by MTT assay; type: functional
# [17] = Permeability of compound by PAMPA-BBB assay
# Sequence of Histone deacetylase 3 (O15379 whole entry): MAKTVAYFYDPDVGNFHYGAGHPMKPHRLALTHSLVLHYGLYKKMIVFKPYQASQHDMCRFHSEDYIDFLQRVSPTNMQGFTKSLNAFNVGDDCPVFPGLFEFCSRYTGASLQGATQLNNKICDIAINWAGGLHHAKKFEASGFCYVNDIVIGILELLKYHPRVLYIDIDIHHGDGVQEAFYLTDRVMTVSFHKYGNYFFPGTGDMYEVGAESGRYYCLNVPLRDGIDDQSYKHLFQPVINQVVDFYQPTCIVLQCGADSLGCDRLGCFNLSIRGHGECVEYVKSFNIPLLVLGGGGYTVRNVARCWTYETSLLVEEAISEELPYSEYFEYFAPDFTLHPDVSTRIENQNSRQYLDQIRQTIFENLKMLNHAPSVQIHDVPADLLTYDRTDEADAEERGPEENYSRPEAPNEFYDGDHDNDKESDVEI
# Sequence of Histone deacetylase 1 (Q13547 whole entry): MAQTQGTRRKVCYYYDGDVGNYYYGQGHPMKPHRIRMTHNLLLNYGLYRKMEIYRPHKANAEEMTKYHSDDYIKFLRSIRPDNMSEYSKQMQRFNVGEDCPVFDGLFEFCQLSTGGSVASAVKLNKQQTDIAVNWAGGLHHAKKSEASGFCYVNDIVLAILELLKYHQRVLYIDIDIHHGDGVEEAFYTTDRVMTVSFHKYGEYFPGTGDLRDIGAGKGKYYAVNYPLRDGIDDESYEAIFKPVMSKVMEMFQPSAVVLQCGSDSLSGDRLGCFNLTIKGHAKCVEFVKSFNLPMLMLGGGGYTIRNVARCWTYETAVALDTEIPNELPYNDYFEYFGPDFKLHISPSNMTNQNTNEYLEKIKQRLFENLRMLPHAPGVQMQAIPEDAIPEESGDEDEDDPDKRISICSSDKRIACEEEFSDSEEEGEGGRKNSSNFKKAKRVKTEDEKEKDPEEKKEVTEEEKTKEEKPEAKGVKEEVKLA
SMILES,pIC50 [1],pIC50 [2],pIC50 [3],pIC50 [4],pIC50 [5],inhibition at 10 µM [13] [%],further results
CC12CC3CC(C)(C1)CC(N)(C3)C2.Cl [MEMANTINE HYDROCHLORIDE],4.63,–,–,–,–,–,Activity [6]: 10%; Activity [7]: inactive; Activity [8]: inactive; Activity [9]: 50%; Activity [10]: 28%; Activity [11]: 57%; Activity [12]: inactive
CC12CC3CC(C)(C1)CC(NCc1ccc(NCc4ccc(C(=O)NO)cc4)cc1)(C3)C2,5.62,4.82,–,4.96,7.11,90,–
CC12CC3CC(C)(C1)CC(NS(=O)(=O)c1ccc(/C=C/C(=O)NO)cc1)(C3)C2,5.70,5.13,5.99,6.02,6.99,90,Activity [14]: Active; Activity [7]: Active; Activity [8]: Active; Activity [10]: Dose-Dependent Effect; Activity [11]: Dose-Dependent Effect
CC12CC3CC(C)(C1)CC(NS(=O)(=O)c1cccc(/C=C/C(=O)NO)c1)(C3)C2,5.66,6.25,5.54,5.76,7.03,90,–
CC12CC3CC(C)(C1)CC(NCc1ccc(/C=C/C(=O)NO)cc1)(C3)C2,5.73,5.99,5.55,–,7.11,90,Activity [14]: Active; Activity [7]: Active; Activity [8]: Active; Activity [15]: inactive; Activity [10]: Dose-Dependent Effect; Activity [16]: inactive; Activity [11]: Dose-Dependent Effect
O=C(CCCCCCC(=O)Nc1ccccc1)NO [VORINOSTAT],–,–,–,–,–,–,permeability [17]: 1 10^-5 cm/s
CC12CC3CC(C)(C1)CC(NCc1ccc(C(=O)NO)cc1)(C3)C2,4.34,5.06,–,–,5.49,–,–

# Now from value to molecule, other results behind:
pIC50 [1],pIC50 [2],pIC50 [3],pIC50 [4],pIC50 [5],SMILES,inhibition at 10 µM [13] [%],further results
5.02,6.15,5.46,5.28,6.57,CC12CC3CC(C)(C1)CC(NC(=O)CCCCCCCCC(=O)NO)(C3)C2,–,–
4.79,5.38,–,4.79,6.69,CC12CC3CC(C)(C1)CC(NC(=O)CCCCCC(=O)NO)(C3)C2,–,–
4.73,6.08,4.90,5.35,6.44,CC12CC3CC(C)(C1)CC(NC(=O)CCCCCCC(=O)NO)(C3)C2,–,–
4.47,5.97,5.38,5.55,6.64,CC12CC3CC(C)(C1)CC(NC(=O)CCCCCCCC(=O)NO)(C3)C2,–,–
5.85,6.15,6.19,6.17,7.22,CC12CC3CC(C)(C1)CC(NCc1cccc(NC(=O)CCCCCCC(=O)NO)c1)(C3)C2,90,–
